Test: Observed sirolimus trough blood concentration in infant patients under model-informed precision dosing
Format: in vivo, human
Excerpt: After therapy has been initiated using the initial dose, data may be collected 103 on the impact of the therapy. This may be done, for example, by, 7-14 days after the start of therapy, taking a pre-dose trough blood sample which could then be sent to a lab to determine a sirolimus blood concentration. Alternatively, in some cases additional samples may be taken. For example, in a case where an abbreviated area under the curve PK consult is ordered, data collection 103 may include taking three whole blood samples: a first sample taken 15-30 minutes before a dose, a second sample taken 45-75 minutes after the dose, and a third sample taken 150-210 minutes after the dose. A laboratory could then process the sample(s), and the sirolimus concentration could be reported back. For example, in a case where an application for recommending individualized sirolimus doses was implemented based on this disclosure, the lab could report the results back through an API exposed by a web portal supported by the application, or could send the results back through an external communication channel (e.g., secure email) to the user of the application, and that user could then input the results to the application himself or herself.
However the model refinement 105 is performed, once a refined model is available, it may be applied 106 to determine a personalized dose for the patient. […]

## CO[C@H]1C[C@@H]2CC[C@@H](C)[C@@](O)(O2)C(=O)C(=O)N2CCCC[C@H]2C(=O)O[C@H]([C@H](C)C[C@@H]2CC[C@@H](O)[C@H](OC)C2)CC(=O)[C@H](C)/C=C(\C)[C@@H](O)[C@@H](OC)C(=O)[C@H](C)C[C@H](C)/C=C/C=C/C=C/1C [sirolimus]
FIG. 2, infant who started sirolimus at 2 months of age, doses predicted from weight, PMA and concentration measured at three months, target range 10-12 ng/mL
  observed sirolimus trough concentration at six months of age: 9.3 ng/mL
FIG. 3, prediction from age 4 months to 6 months based on concentration at 4 months, weight and PMA, target trough range 10-12 ng/mL
  observed sirolimus trough concentration at 6 months: 10.5 ng/mL

Source: patent publication US20250006334A1, “SIROLIMUS PHARMACOKINETICS GUIDED AND MODEL INFORMED PRECISION DOSING” (Children's Hospital Medical Center, priority 2023, published 2025)
